Test results taken from patent publication US8501746B2, “Organic compounds” (Xenon Pharmaceuticals Inc., priority 2006, dated 2013).

| melting point | SMILES |
| --- | --- |
| 150 °C (dec.) | O=C(NCc1ccccc1)c1csc(-n2ccc(O)cc2=O)c1 [Example 7.3, N-Benzyl-5-(4-hydroxy-2-oxopyridin-1(2H)-yl)thiophene-3-carboxamide] |
| 98 °C (dec.) | Cc1cc(-n2ccc(O)cc2=O)sc1C(=O)NCc1ccccc1 [Example 7.4, N-Benzyl-5-(4-hydroxy-2-oxopyridin-1(2H)-yl)-3-methylthiophene-2-carboxamide] |
| 95 °C (dec.) | Cc1cc(-n2ccc(O)cc2=O)sc1C(=O)NCc1ccc(F)cc1 [Example 7.7, N-(4-Fluorobenzyl)-5-(4-hydroxy-2-oxopyridin-1(2H)-yl)-3-methylthiophene-2-carboxamide] |
| 140 to 142 °C | Cc1cc(-n2ccc(O)cc2=O)sc1C(=O)NCc1cccc(F)c1 [Example 7.8, N-(3-Fluorobenzyl)-5-(4-hydroxy-2-oxopyridin-1(2H)-yl)-3-methylthiophene-2-carboxamide] |
| 183 to 184 °C | CCNC(=O)c1sc(-n2ccc(O)cc2=O)cc1C [Example 7.9, N-Ethyl-5-(4-hydroxy-2-oxopyridin-1(2H)-yl)-3-methylthiophene-2-carboxamide] |
| 238 to 240 °C | Cc1nc(-n2ccc(O)cc2=O)sc1C(=O)NCc1cccnc1 [Example 7.10, 2-(4-Hydroxy-2-oxopyridin-1(2H)-yl)-4-methyl-N-(pyridin-3-ylmethyl)thiazole-5-carboxamide] |
| 153 to 154 °C | Cc1cc(-n2ccc(OCc3ccccc3)cc2=O)sc1C(=O)NCc1ccccc1 [Example 8.1, N-Benzyl-5-(4-(benzyloxy)-2-oxopyridin-1(2H)-yl)-3-methylthiophene-2-carboxamide] |
| 225 to 227 °C | Cc1cc(-n2ccc(OCc3ccc(C(F)(F)F)cc3)cc2=O)sc1C(=O)NCc1ccccc1 [Example 9.1, N-Benzyl-3-methyl-5-(2-oxo-4-(4-(trifluoromethyl)benzyloxy)pyridin-1(2H)-yl)thiophene-2-carboxamide] |
| 195 to 197 °C | Cc1cc(-n2ccc(OCc3ccc(F)cc3)cc2=O)sc1C(=O)NCc1ccccc1 [Example 9.2, N-Benzyl-5-(4-(4-fluorobenzyloxy)-2-oxopyridin-1(2H)-yl)-3-methylthiophene-2-carboxamide] |
| 178 to 180 °C | Cc1cc(-n2ccc(OCc3ccc(OC(F)F)cc3)cc2=O)sc1C(=O)NCc1ccccc1 [Example 9.3, N-Benzyl-5-(4-(4-(difluoromethoxy)benzyloxy)-2-oxopyridin-1(2H)-yl)-3-methylthiophene-2-carboxamide] |
| 159 to 160 °C | Cc1cc(-n2ccc(OCCc3ccccc3)cc2=O)sc1C(=O)NCc1ccccc1 [Example 9.4, N-Benzyl-3-methyl-5-(2-oxo-4-phenethoxypyridin-1(2H)-yl)thiophene-2-carboxamide] |
| 175 to 177 °C | Cc1cc(-n2ccc(OCC3CC3)cc2=O)sc1C(=O)NCc1ccccc1 [Example 9.5, N-Benzyl-5-(4-(cyclopropylmethoxy)-2-oxopyridin-1(2H)-yl)-3-methylthiophene-2-carboxamide] |
| 214 to 216 °C | Cc1nc(-n2ccc(OCc3ccc(C(F)(F)F)o3)cc2=O)sc1C(=O)NCc1ccccc1 [Example 9.7] |
| 278 to 280 °C | Cc1nc(-n2ccc(OCc3ccc(C(F)(F)F)cc3)cc2=O)sc1C(=O)NCc1ccccc1 [Example 9.8, N-Benzyl-4-methyl-2-(2-oxo-4-(4-(trifluoromethyl)benzyloxy)pyridin-1(2H)-yl)thiazole-5-carboxamide] |
| 242 to 244 °C | Cc1nc(-n2ccc(OCc3ccc(OC(F)F)cc3)cc2=O)sc1C(=O)NCc1ccc(F)cc1 [Example 9.9, 2-(4-(4-(Difluoromethoxy)benzyloxy)-2-oxopyridin-1(2H)-yl)-N-(4-fluorobenzyl)-4-methylthiazole-5-carboxamide] |
| 196 to 198 °C | Cc1nc(-n2ccc(OCC3CCCC3)cc2=O)sc1C(=O)NCc1ccccc1 [Example 9.10, N-Benzyl-2-(4-(cyclopentylmethoxy)-2-oxopyridin-1(2H)-yl)-4-methylthiazole-5-carboxamide] |
| 183 to 185 °C | COc1ccn(-c2nc(C)c(C(=O)NCc3ccc(F)c(F)c3)s2)c(=O)c1 [Example 9.11, N-(3,4-Difluorobenzyl)-2-(4-methoxy-2-oxopyridin-1(2H)-yl)-4-methylthiazole-5-carboxamide] |

Further lines, the compound ahead of its results:

| SMILES | melting point |
| --- | --- |
| Cc1nc(-n2ccc3c(OCc4ccccc4)cccc3c2=O)sc1C(=O)NCc1ccccc1 [Example 3.8, N-Benzyl-2-(5-(benzyloxy)-1-oxoisoquinolin-2(1H)-yl)-4-methylthiazole-5-carboxamide] | 225 to 226 °C |
| Cc1nc(-n2c(=O)ccc3cc(OCc4ccccc4)ccc32)sc1C(=O)NCc1ccccc1 [Example 3.9, N-Benzyl-2-(6-(benzyloxy)-2-oxoquinolin-1(2H)-yl)-4-methylthiazole-5-carboxamide] | 213 to 216 °C |
| Cc1nc(-n2ccccc2=O)sc1C(=O)NCc1ccccc1 [Example 3.10, N-Benzyl-4-methyl-2-(2-oxopyridin-1(2H)-yl)thiazole-5-carboxamide] | 180 to 182 °C |
| Cc1nc(-n2ccc(OCc3ccccc3)cc2=O)sc1C(=O)NCc1ccc(F)cc1 [Example 3.12, 2-(4-(Benzyloxy)-2-oxopyridin-1(2H)-yl)-N-(4-fluorobenzyl)-4-methylthiazole-5-carboxamide] | 223 to 225 °C |
| Cc1nc(-n2ccc(C(=O)Nc3ccccc3)cc2=O)sc1C(=O)NCc1ccccc1 [Example 3.13, N-Benzyl-4-methyl-2-(2-oxo-4-(phenylcarbamoyl)pyridin-1(2H)-yl)thiazole-5-carboxamide] | 243 to 245 °C |
| Cc1nc(-n2cccc(C(=O)Nc3ccccc3)c2=O)sc1C(=O)NCc1ccccc1 [Example 3.14, N-Benzyl-4-methyl-2-(2-oxo-3-(phenylcarbamoyl)pyridin-1(2H)-yl)thiazole-5-carboxamide] | 225 to 227 °C |
| Cc1nc(-n2cc(C(=O)Nc3ccccc3)ccc2=O)sc1C(=O)NCc1ccccc1 [Example 3.15, N-Benzyl-4-methyl-2-(2-oxo-5-(phenylcarbamoyl)pyridin-1(2H)-yl)thiazole-5-carboxamide] | 223 to 225 °C |
| Cc1nc(-n2ccccc2=O)sc1C(=O)NCc1cccnc1 [Example 3.16, 4-Methyl-2-(2-oxopyridin-1(2H)-yl)-N-(pyridin-3-ylmethyl)thiazole-5-carboxamide] | 218 to 220 °C |
| Cc1nc(-n2ccc(OCc3ccccc3)cc2=O)sc1C(=O)NCc1ccc(F)c(F)c1 [Example 3.17, 2-(4-(Benzyloxy)-2-oxopyridin-1(2H)-yl)-N-(3,4-difluorobenzyl)-4-methylthiazole-5-carboxamide] | 225 to 227 °C |
| Cc1nc(-n2ccc(COc3ccccc3)cc2=O)sc1C(=O)NCc1ccccc1 [Example 3.18, N-Benzyl-4-methyl-2-(2-oxo-4-(phenoxymethyl)pyridin-1(2H)-yl)thiazole-5-carboxamide] | 175 to 177 °C |
| Cc1cc(-n2ccc(OCc3ccccc3)cc2=O)sc1C(=O)NCc1ccc(F)cc1 [Example 3.21, 5-(4-(Benzyloxy)-2-oxopyridin-1(2H)-yl)-N-(4-fluorobenzyl)-3-methylthiophene-2-carboxamide] | 175 to 177 °C |
| Cc1cc(-n2ccc(OCc3ccccc3)cc2=O)sc1C(=O)NCc1cccc(F)c1 [Example 3.22, 5-(4-(Benzyloxy)-2-oxopyridin-1(2H)-yl)-N-(3-fluorobenzyl)-3-methylthiophene-2-carboxamide] | 140 to 141 °C |
| CCNC(=O)c1sc(-n2ccc(OCc3ccccc3)cc2=O)cc1C [Example 3.23, 5-(4-(Benzyloxy)-2-oxopyridin-1(2H)-yl)-N-ethyl-3-methylthiophene-2-carboxamide] | 158 to 160 °C |
| Cc1nc(-n2ccc(C(F)(F)F)cc2=O)sc1C(=O)NCc1cccnc1 [Example 3.24, 4-Methyl-2-(2-oxo-4-(trifluoromethyl)pyridin-1(2H)-yl)-N-(pyridin-3-ylmethyl)thiazole-5-carboxamide] | 172 to 173 °C |
| Cc1nc(-n2ccc(OCc3ccccc3)cc2=O)sc1C(=O)NCc1cccnc1 [Example 3.25, 2-(4-(Benzyloxy)-2-oxopyridin-1(2H)-yl)-4-methyl-N-(pyridin-3-ylmethyl)thiazole-5-carboxamide] | 208 to 209 °C |
| Cc1nc(-n2ccc(NC(=O)c3ccccc3)cc2=O)sc1C(=O)NCc1ccccc1 [Example 4, 2-(4-Benzamido-2-oxopyridin-1(2H)-yl)-N-benzyl-4-methylthiazole-5-carboxamide] | 246 to 248 °C |
| Cc1nc(-n2ccc(NCc3ccccc3)cc2=O)sc1C(=O)NCc1ccccc1 [Example 5, N-benzyl-2-(4-(benzylamino)-2-oxopyridin-1(2H)-yl)-4-methylthiazole-5-carboxamide] | 253 to 255 °C |
| Cc1nc(-n2ccc(OCc3cccnc3)cc2=O)sc1C(=O)NCc1ccccc1 [Example 6, N-Benzyl-4-methyl-2-(2-oxo-4-(pyridin-3-ylmethoxy)pyridin-1(2H)-yl)thiazole-5-carboxamide] | 214 to 216 °C |
| Cc1nc(-n2ccc(OCc3ccccn3)cc2=O)sc1C(=O)NCc1ccccc1 [Example 6.1, N-Benzyl-4-methyl-2-(2-oxo-4-(pyridin-2-ylmethoxy)pyridin-1(2H)-yl)thiazole-5-carboxamide] | 202 to 205 °C |
| Cc1nc(-n2cccc(O)c2=O)sc1C(=O)NCc1ccccc1 [Example 7, N-Benzyl-2-(3-hydroxy-2-oxopyridin-1(2H)-yl)-4-methylthiazole-5-carboxamide] | 225 to 228 °C |
| O=C(NCc1ccccc1)c1csc(-n2ccc(OCc3ccccc3)cc2=O)c1 [Example 8, N-Benzyl-5-(4-(benzyloxy)-2-oxopyridin-1(2H)-yl)thiophene-3-carboxamide] | 162 to 163 °C |
| Cc1cc(-n2ccc(OCCC3CC3)cc2=O)sc1C(=O)NCc1ccccc1 [Example 9, N-Benzyl-5-(4-(2-cyclopropylethoxy)-2-oxopyridin-1(2H)-yl)-3-methylthiophene-2-carboxamide] | 134 to 136 °C |
